Laboratory results published in US20080085315A1, “Amorphous ezetimibe and the production thereof” (priority 2006, published 2008).

Assays:
[1] = cited from earlier work
[2] = Pharmacokinetics in fasted male Sprague Dawley rats, single dose; type: in vivo; conditions: rat, po, analyte EZE in plasma, single dose 100 mg/kg crystalline EZE or equivalent amount of amorphous EZE
Protocol: The pharmacokinetics of crystalline EZE and the amorphous 1 EZE: 3 PVP+2% SLS spray dried powder were studied in male Sprague Dawley rats in the fasted state. Six rats were single-dosed with either 100 mg/kg crystalline EZE or an equivalent amount of the amorphous EZE of Example 2.

Cmax [2]: 5.1 ng/mL
Tmax [2]: 8 h
AUC(0-t) ([2]; read-out: AUC0-24 h): 64.2 ng·h/mL
Compound: O=C1[C@H](CC[C@H](O)c2ccc(F)cc2)[C@@H](c2ccc(O)cc2)N1c1ccc(F)cc1 [crystalline, 1-(4-fluorophenyl)-3(R)-[3-(4-fluorophenyl)-3(S)-hydroxypropyl]-4(S)-(4-hydroxyphenyl)-2-azetidinone]
solubility in water [1]: insoluble in water
